Test results taken from patent publication US12492188B2, “1H-benzo[D]imidazole derivatives as TLR9 inhibitors for the treatment of fibrosis” (BRISTOL-MYERS SQUIBB COMPANY, priority 2020, dated 2025).
Read-outs that look alike come from different tables or passages of the source.

Legend:
Assay type in all cases: cell-based
human TLR9 = biological target: T1, human TLR9 (Homo sapiens, UniProt Q9NR96); assay: TLR9 inhibition reporter assay (HEK-Blue cells, secreted embryonic alkaline phosphatase reporter)
T1 construct: host or cells: HEK-Blue cells (HEK293-derived reporter line)
T1 sequence (Q9NR96 26-1032): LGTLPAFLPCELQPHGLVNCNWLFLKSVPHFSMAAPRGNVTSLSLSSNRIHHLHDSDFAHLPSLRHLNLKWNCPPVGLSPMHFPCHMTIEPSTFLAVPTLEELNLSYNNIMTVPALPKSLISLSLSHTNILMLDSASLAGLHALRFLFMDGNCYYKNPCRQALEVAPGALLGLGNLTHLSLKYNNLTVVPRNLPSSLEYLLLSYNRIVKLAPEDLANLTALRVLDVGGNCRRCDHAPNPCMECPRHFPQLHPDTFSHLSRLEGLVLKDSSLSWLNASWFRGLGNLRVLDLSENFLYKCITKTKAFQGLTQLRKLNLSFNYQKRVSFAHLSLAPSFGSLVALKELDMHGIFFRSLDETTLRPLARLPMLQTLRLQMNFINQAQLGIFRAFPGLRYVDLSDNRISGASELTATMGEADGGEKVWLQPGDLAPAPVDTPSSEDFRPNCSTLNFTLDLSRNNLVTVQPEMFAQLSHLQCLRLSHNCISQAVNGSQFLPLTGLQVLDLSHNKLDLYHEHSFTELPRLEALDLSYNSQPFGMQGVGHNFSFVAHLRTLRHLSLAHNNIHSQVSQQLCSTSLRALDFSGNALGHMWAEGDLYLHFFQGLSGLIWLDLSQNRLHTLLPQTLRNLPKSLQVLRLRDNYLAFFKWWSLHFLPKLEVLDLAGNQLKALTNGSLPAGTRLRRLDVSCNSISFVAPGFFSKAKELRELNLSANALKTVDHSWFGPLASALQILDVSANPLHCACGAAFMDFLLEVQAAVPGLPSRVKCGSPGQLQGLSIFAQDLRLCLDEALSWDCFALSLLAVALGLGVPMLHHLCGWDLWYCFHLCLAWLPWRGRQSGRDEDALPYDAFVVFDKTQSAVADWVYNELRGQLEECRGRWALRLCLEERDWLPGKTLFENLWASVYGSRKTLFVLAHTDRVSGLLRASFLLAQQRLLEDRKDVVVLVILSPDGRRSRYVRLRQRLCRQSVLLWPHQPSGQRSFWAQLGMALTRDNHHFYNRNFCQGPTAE
Method in brief: (§1)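 Inhibitors are tested in dose response (0.05 nM–50 μM) on HEK-Blue reporter cells expressing human TLR7, TLR8 or TLR9. After 30 min at room temperature, each line is stimulated with its own agonist (gardiquimod 7.5 μM, R848 15.9 μM or ODN2006 5 nM, final) and SEAP is measured 22 h later.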

human TLR7 = biological target: T2, human TLR7 (Homo sapiens, UniProt Q9NYK1); assay: TLR7 inhibition reporter assay (HEK-Blue cells, secreted embryonic alkaline phosphatase reporter); details: HEK-Blue cells overexpressing human TLR7, stimulated with gardiquimod 7.5 μM; read-out: TLR 7 IC50
T2 construct: host or cells: HEK-Blue cells (HEK293-derived reporter line)
T2 sequence (Q9NYK1 27-1049): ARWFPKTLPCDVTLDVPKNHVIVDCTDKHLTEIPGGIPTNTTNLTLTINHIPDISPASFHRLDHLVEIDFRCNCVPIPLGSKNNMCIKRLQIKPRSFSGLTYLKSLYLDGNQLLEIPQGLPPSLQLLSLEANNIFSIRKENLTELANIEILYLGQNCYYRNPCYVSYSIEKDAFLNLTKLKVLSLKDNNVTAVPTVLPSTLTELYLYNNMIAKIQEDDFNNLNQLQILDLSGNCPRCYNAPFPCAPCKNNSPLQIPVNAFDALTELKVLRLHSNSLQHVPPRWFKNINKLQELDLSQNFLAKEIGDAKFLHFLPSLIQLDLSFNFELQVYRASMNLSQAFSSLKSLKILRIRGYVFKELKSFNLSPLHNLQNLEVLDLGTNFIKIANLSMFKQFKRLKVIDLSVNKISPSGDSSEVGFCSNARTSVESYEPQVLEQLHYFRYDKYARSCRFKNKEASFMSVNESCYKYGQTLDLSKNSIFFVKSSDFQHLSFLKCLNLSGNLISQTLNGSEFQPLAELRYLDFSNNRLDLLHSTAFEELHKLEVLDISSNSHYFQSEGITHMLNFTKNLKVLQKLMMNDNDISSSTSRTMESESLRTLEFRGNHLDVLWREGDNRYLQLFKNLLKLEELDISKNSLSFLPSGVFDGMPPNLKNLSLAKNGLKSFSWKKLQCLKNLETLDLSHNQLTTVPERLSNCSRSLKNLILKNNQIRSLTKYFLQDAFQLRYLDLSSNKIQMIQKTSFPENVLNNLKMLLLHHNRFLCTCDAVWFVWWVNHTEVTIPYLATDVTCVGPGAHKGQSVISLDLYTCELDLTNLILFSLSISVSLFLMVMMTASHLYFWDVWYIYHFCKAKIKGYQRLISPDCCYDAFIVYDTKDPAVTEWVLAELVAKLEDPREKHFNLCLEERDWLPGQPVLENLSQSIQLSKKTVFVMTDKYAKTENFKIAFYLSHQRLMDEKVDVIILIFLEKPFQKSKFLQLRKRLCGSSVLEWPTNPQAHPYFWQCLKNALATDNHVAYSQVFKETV
Method in brief: as §1

human TLR8 = biological target: T3, human TLR8 (Homo sapiens, UniProt Q9NR97); assay: TLR8 inhibition reporter assay (HEK-Blue cells, secreted embryonic alkaline phosphatase reporter); details: HEK-Blue cells overexpressing human TLR8, stimulated with R848 15.9 μM; read-out: TLR 8 IC50
T3 construct: host or cells: HEK-Blue cells (HEK293-derived reporter line)
T3 sequence (Q9NR97 27-1041): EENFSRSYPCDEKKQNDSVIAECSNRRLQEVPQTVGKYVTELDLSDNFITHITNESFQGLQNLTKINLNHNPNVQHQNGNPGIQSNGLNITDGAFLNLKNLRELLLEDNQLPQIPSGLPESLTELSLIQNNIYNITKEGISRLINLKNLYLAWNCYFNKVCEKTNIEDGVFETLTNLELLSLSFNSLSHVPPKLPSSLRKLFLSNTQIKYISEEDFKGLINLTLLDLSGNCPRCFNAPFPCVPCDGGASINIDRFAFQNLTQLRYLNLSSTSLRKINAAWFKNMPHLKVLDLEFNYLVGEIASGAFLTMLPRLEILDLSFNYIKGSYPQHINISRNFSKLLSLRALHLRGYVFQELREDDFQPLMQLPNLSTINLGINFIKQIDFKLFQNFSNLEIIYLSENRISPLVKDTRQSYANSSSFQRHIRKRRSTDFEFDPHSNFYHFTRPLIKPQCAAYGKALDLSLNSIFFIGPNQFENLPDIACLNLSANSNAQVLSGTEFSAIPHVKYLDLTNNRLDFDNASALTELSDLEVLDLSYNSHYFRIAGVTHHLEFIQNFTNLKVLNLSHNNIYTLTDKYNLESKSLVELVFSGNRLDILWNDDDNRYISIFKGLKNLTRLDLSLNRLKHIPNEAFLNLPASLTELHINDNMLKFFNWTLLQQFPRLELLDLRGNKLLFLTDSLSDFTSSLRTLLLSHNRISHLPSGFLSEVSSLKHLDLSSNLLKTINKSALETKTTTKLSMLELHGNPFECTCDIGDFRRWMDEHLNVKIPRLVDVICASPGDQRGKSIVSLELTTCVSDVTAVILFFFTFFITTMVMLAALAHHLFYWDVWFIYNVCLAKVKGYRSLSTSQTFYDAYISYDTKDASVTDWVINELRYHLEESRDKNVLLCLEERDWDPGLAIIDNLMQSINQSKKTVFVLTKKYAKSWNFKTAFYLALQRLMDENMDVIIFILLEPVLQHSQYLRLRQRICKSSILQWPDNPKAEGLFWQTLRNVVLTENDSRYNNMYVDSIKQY
Method in brief: as §1

[1] = HEK-Blue cells overexpressing human TLR9, stimulated with ODN2006 5 nM, read-out: TLR 9 IC50

Row | SMILES | IC50 (human TLR9) | IC50 (human TLR9; [1]) | IC50 (human TLR7) | IC50 (human TLR8)
1 | Cn1c(-c2ccc(S(C)(=O)=O)cc2)nc2c(F)c(C3CCN(C4CCN(C5CCOCC5)CC4)CC3)ccc21 [Example 187, 4-fluoro-1-methyl-2-(4-(methylsulfonyl)phenyl)-5-(1′-(tetrahydro-2H-pyran-4-yl)-[1,4′-bipiperidin]-4-yl)-1H-benzo[d]imidazole] | 0.52 µM | 0.523 µM | > 50 µM | > 50 µM
2 | COCCN1CCC(N2CCC(c3ccc4c(nc(-c5ccc(S(C)(=O)=O)cc5)n4C)c3F)CC2)CC1 [Example 188, 4-fluoro-5-(1′-(2-methoxyethyl)-[1,4′-bipiperidin]-4-yl)-1-methyl-2-(4-(methylsulfonyl)phenyl)-1H-benzo[d]imidazole] | 0.44 µM | 0.441 µM | > 50 µM | > 50 µM
3 | Cn1c(-c2ccc(S(C)(=O)=O)cc2)nc2c(F)c(C3CCN(C4CC5CCC(C4)N5C4COC4)CC3)ccc21 (stereo not drawn) [Example 195, 4-fluoro-1-methyl-2-(4-(methylsulfonyl)phenyl)-5-(1-(8-(oxetan-3-yl)-8-azabicyclo[3.2.1]octan-3-yl)piperidin-4-yl)-1H-benzo[d]imidazole] | 0.49 µM | 0.49 µM | > 50 µM | > 50 µM
4 | Cn1c(-c2ccc(S(C)(=O)=O)cc2)nc2c(F)c(C3CCN(C4CC5CCC(C4)N5C4COC4)CC3)ccc21 (stereo not drawn) [Example 196, 4-fluoro-1-methyl-2-(4-(methylsulfonyl)phenyl)-5-(1-(8-(oxetan-3-yl)-8-azabicyclo[3.2.1]octan-3-yl)piperidin-4-yl)-1H-benzo[d]imidazole] | 0.58 µM | 0.578 µM | > 50 µM | > 50 µM
5 | Cn1c(-c2ccc(S(C)(=O)=O)cc2)nc2cc(C3CCN(C4CCN(C5CC5)CC4)CC3)cc(F)c21 [Example 202, 5-(1′-cyclopropyl-[1,4′-bipiperidin]-4-yl)-7-fluoro-1-methyl-2-(4-(methylsulfonyl)phenyl)-1H-benzo[d]imidazole] | 0.5 µM | 0.502 µM | > 50 µM | > 50 µM
6 | Cn1c(-c2ccc(S(C)(=O)=O)cc2)nc2cc(C3CCN(C4CCN(CC5COC5)CC4)CC3)cc(F)c21 [Example 204, 7-fluoro-1-methyl-2-(4-(methylsulfonyl)phenyl)-5-(1′-(oxetan-3-ylmethyl)-[1,4′-bipiperidin]-4-yl)-1H-benzo[d]imidazole] | 0.78 µM | 0.781 µM | > 50 µM | > 50 µM
7 | Cn1c(-c2ccc(S(C)(=O)=O)cc2)nc2cc(C3CCN(C4CCN(C5COC5)CC4)CC3)cc(F)c21 [Example 206, 7-fluoro-1-methyl-2-(4-(methylsulfonyl)phenyl)-5-(1′-(oxetan-3-yl)-[1,4′-bipiperidin]-4-yl)-1H-benzo[d]imidazole] | 0.84 µM | 0.84 µM | > 50 µM | > 50 µM

These reach a lower IC50 (human TLR9). Values come first.

Row | IC50 (human TLR9) | IC50 (human TLR9; [1]) | IC50 (human TLR7) | IC50 (human TLR8) | SMILES
8 | 0.16 µM | 0.155 µM | > 50 µM | > 50 µM | Cn1c(-c2ccc(S(C)(=O)=O)cc2)nc2c(F)c(C3CCN(C4CC5CCC(C4)N5C4CCOCC4)CC3)ccc21 (stereo not drawn) [Example 197, 4-fluoro-1-methyl-2-(4-(methylsulfonyl)phenyl)-5-(1-(8-(tetrahydro-2H-pyran-4-yl)-8-azabicyclo[3.2.1]octan-3-yl)piperidin-4-yl)-1H-benzo[d]imidazole]
9 | 0.11 µM | 0.108 µM | 15.4 µM | > 50 µM | Cn1c(-c2ccc(S(C)(=O)=O)cc2)nc2cc(C3CCN(C4CCN(CC5CC5)CC4)CC3)cc(F)c21 [Example 203, 5-(1′-(cyclopropylmethyl)-[1,4′-bipiperidin]-4-yl)-7-fluoro-1-methyl-2-(4-(methylsulfonyl)phenyl)-1H-benzo[d]imidazole]
10 | 0.11 µM | 0.114 µM | 21.3 µM | > 50 µM | Cn1c(-c2ccc(S(C)(=O)=O)cc2)nc2cc(C3CCN(C4CCN(C5CCC5)CC4)CC3)cc(F)c21 [Example 205, 5-(1′-cyclobutyl-[1,4′-bipiperidin]-4-yl)-7-fluoro-1-methyl-2-(4-(methylsulfonyl)phenyl)-1H-benzo[d]imidazole]
11 | 0.097 µM | 0.097 µM | 14.4 µM | > 50 µM | CC(C)CN1CCC(N2CCC(c3cc(F)c4c(c3)nc(-c3ccc(S(C)(=O)=O)cc3)n4C)CC2)CC1 [Example 201, 7-fluoro-5-(1′-isobutyl-[1,4′-bipiperidin]-4-yl)-1-methyl-2-(4-(methylsulfonyl)phenyl)-1H-benzo[d]imidazole]
12 | 0.057 µM | 0.057 µM | > 50 µM | > 50 µM | Cn1c(-c2ccc(S(C)(=O)=O)cc2)nc2c(F)c(C3CCN(C4CC5CCC(C4)N5C4CCOCC4)CC3)ccc21 (stereo not drawn) [Example 198, 4-fluoro-1-methyl-2-(4-(methylsulfonyl)phenyl)-5-(1-(8-(tetrahydro-2H-pyran-4-yl)-8-azabicyclo[3.2.1]octan-3-yl)piperidin-4-yl)-1H-benzo[d]imidazole]
